Data taken from PMC5736709, “Unravelling the specificity and mechanism of sialic acid recognition by the gut symbiont Ruminococcus gnavus” (Nature Communications, 2017).
Entries after “also recorded” stand apart in the source; their conditions may differ.

Experiments:
RgCBM40 [1] = biological target: T1, RgCBM40 (Mediterraneibacter gnavus (Ruminococcus gnavus), UniProt A7B557); assay: ITC of sialoglycans binding to RgCBM40 wild type; parameters: species or system Ruminococcus gnavus ATCC 29149; settings: RgCBM40 WT; for Kd: ITC in PBS, 115-230 μM protein in cell, syringe 10 mM sugar (25 mM for Neu5Ac), * = estimate only, Kd too high to determine; for -T∆S / ∆G / ∆H: ITC, SD of three results
Protocol: (§1) Isothermal titration calorimetry (ITC) experiments were performed using the PEAQ-ITC system (Malvern, Malvern, UK) with a cell volume of 200 µl. Prior to titration protein samples were exhaustively dialysed into PBS. The ligand was dissolved in the dialysis buffer. The cell protein concentration was 115 µM (except for mutant I95A where it was 173 µM and the wild-type interaction with 6′SL where it was 230 µM) and the syringe ligand concentration was 10 mM (25 mM for Neu5Ac). Controls with titrant (sugar) injected into buffer only were subtracted from the data. Analysis was performed using Malvern software, using a single-binding site model. The stoichiometry of binding sites was set to 1.0 as this was evident from the crystal structure. Quantitative and most qualitative experiments were carried out in triplicate.

RgCBM40 Y116A = biological target: T2, RgCBM40 Y116A (Mediterraneibacter gnavus (Ruminococcus gnavus), UniProt A7B557, Y116A); assay: ITC of sialoglycans binding to RgCBM40 mutant Y116A; parameters: species or system Ruminococcus gnavus ATCC 29149; settings: for Kd: ITC
T2 sequence (A7B557 50-237 Y116A): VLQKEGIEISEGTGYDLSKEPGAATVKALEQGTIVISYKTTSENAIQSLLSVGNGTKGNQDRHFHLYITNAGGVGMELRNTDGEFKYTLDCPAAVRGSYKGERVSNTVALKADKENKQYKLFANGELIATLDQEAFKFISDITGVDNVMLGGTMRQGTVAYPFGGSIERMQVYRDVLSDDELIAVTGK
Protocol: (§2) Site directed mutagenesis of RgGH33 to introduce the D282A mutation in the active site was carried out using the QuikChange kit, following the manufacturer’s instructions, Agilent (Santa Clara, CA, USA). Site-directed mutants of RgCBM40; I95A, Y116A, E126A, R128A, R204A and double mutant R128A/R204A, were obtained from NZyTech (Lisbon, Portugal). The primers are listed in Supplementary Table 4. The integrity of the RgGH33 and RgCBM40 mutants was checked by circular dichroism (CD).
as §1

RgCBM40 R128A = biological target: T3, RgCBM40 R128A (Mediterraneibacter gnavus (Ruminococcus gnavus), UniProt A7B557, R128A); assay: ITC of sialoglycans binding to RgCBM40 mutant R128A; parameters: species or system Ruminococcus gnavus ATCC 29149; settings: for Kd: ITC
T3 sequence (A7B557 50-237 R128A): T2 sequence (A7B557 50-237 Y116A)
Protocol: as §2, §1

RgCBM40 [2] = biological target: T1, RgCBM40; assay: STD NMR of sialoglycans with RgCBM40 WT; parameters: species or system Ruminococcus gnavus ATCC 29149; settings: 1 mM sialoglycan, 50 μM RgCBM40 WT, 288 K; 'exception' = monosaccharides for which binding was not detected
Protocol: (§3) ^1H and ^13C resonance assignment for all the sugars was performed on the bases of 1D ^1H, 2D DQF-COSY, TOCSY, HSQC and NOESY experiments run on the free ligands in unbuffered D2O, pH 7.0. For STD NMR experiments, all the samples consisted of 1 mM sialoglycans and 50 μM RgCBM40 (WT or I95A mutant) in D2O buffer solution of 10 mM Tris-d11 pH 7.8 and 100 mM NaCl (ligand: protein ratio 20:1). An STD pulse sequence that included 2.5 ms and 5 ms trim pulses and a 3 ms spoil gradient was used. Saturation was achieved applying a train of 50 ms Gaussian pulses (0.40 mW) on the f2 channel, at 0.60 p.p.m. (on-resonance experiments) and 40 p.p.m. (off-resonance experiments). The broad protein signals were removed using a 40 ms spinlock (T1ρ) filter. All the experiments were recorded at ^1H frequency of 800.23 MHz on a Bruker Avance III spectrometer equipped with a 5 mm probe TXI 800 MHz H-C/N-D-05 Z BTO, at 288 K. For all the sialoglycans in the presence of RgCBM40, an STD experiment with a saturation time of 2 s and a relaxation delay of 5 s was performed, as a first test for binding. For the confirmed binders, the STD NMR experiments were carried out at different saturation times (0.5, 1, 2, 3, 4 and 5 s) with 1 K scans and relaxation delay of 5 s, in order to obtain the binding epitope mapping. The resulting build-up curves for each proton were fitted mathematically to a mono-exponential equation (y = a×[1-exp(b×x)]), from which the initial slopes (a×b) were obtained. For each ligand, the binding epitope mapping was obtained by dividing the initial slopes by the one of the H7 proton of the corresponding sialic acid ring, to which an arbitrary value of 100% was assigned. This normalisation of the STD values allows the comparison across all the sialoglycans.

RgCBM40 I95A = biological target: T4, RgCBM40 I95A (Mediterraneibacter gnavus (Ruminococcus gnavus), UniProt A7B557, I95A); assay: STD NMR of sialoglycans with RgCBM40 I95A mutant; assay type: binding, Ruminococcus gnavus ATCC 29149; settings: 1 mM sialoglycan, 50 μM RgCBM40 I95A
T4 sequence (A7B557 50-237 I95A): T2 sequence (A7B557 50-237 Y116A)
Protocol: as §3, with “The resulting build-up curves for each proton were fitted mathematically to a mono-exponential equation (y = a×[1-exp(b×x)]), from which the initial slopes (a×b) were obtained. For each ligand, the binding epitope mapping was obtained by dividing the initial slopes by the one of the H7 proton of the corresponding sialic acid ring, to which an arbitrary value of 100% was assigned. This normalisation of the STD values allows the comparison across all the sialoglycans.” left out

SpCBM40_NanC = biological target: SpCBM40_NanC; parameters: method as in PMID 26370075; settings: isolated S. pneumoniae SpCBM40_NanC ref 37; cited from earlier work

| Structure (SMILES) | Kd (RgCBM40 [1]) | -T∆S (RgCBM40 [1]) | ∆G (RgCBM40 [1]) | ∆H (RgCBM40 [1]) | Binding by ITC (in words) (RgCBM40 Y116A) | Kd (RgCBM40 Y116A) | Binding by ITC (in words) (RgCBM40 R128A) | Kd (RgCBM40 R128A) | Binding to RgCBM40 detected by STD NMR (RgCBM40 [2]) | Binding to I95A by STD-NMR (RgCBM40 I95A) | Kd (SpCBM40_NanC) |
| --- | --- | --- | --- | --- | --- | --- | --- | --- | --- | --- | --- |
| CC(=O)N[C@H]1[C@H]([C@H](O)[C@H](O)CO)O[C@@](OC[C@H]2O[C@@H](O[C@H]3[C@H](O)[C@@H](O)C(O)O[C@@H]3CO)[C@H](O)[C@@H](O)[C@H]2O)(C(=O)O)C[C@@H]1O (stereo partly drawn) [6′SL, α2,6-sialyllactose] | 1700 µM | 5.82 ± 0.48 kcal/mol | -3.78 ± 0.05 kcal/mol | -9.61 ± 0.44 kcal/mol | abolished | > 25000 µM | abolished | > 25000 µM | detected | confirmed | ~1600 µM |
| CC(=O)N[C@H]1[C@H]([C@H](O)[C@H](O)CO)O[C@@](O[C@H]2[C@@H](O)[C@@H](CO)O[C@@H](O[C@H]3[C@H](O)[C@@H](O)C(O)O[C@@H]3CO)[C@@H]2O)(C(=O)O)C[C@@H]1O (stereo partly drawn) [3′SL, α2-3 sialyllactose] | 570 µM | 1.47 ± 0.77 kcal/mol | -4.43 ± 0.05 kcal/mol | -5.90 ± 0.72 kcal/mol | abolished | > 25000 µM | abolished; also recorded: loss of binding | > 25000 µM | detected | confirmed | ~1500 µM |
